Experimental data: patent US8530680B2, “System and method for controlling growth of microorganisms with brominated furanones” (Syracuse University, priority 2008, dated 2013)

System: C. albicans strain SC5341 gene expression
Assay: DNA microarray gene expression of C. albicans after BF1 treatment
Format: cell-based, Candida albicans
Settings: for Induction expression ratio: 3 μg/mL BF1, 45 minutes
Protocol: An overnight culture of C. albicans strain SC5341 grown in SD medium was sub-cultured in 25 mL of the same medium to an initial OD600 of 0.005 and grown till the OD600 was 1.0. The culture was diluted using fresh SD medium to a volume of 100 mL with an initial OD600 of 0.6, and it was grown till the OD600 reached 1.0, which took approximately 2 hours. Then the culture was split into two equal portions, with 3 μg/mL of BF1 added to the first one and the same amount of ethanol added to the second one to eliminate the effects of ethanol. […] Forty-five minutes after BF1 addition, the cells were harvested by centrifugation at 13,200 rpm at 4° C. for 30 sec and stored at −80° C. until RNA isolation. To lyse the cells, 1.5 mL of Trizol reagent (Invitrogen® Co., Carlsbad, Calif.) and 0.5 mL of 0.5 mm glass beads were added to the frozen tubes containing C. albicans cell pellets. The tubes were closed tightly and beaten for 30 sec at 4,800 oscillations/minute using a mini bead beater (Biospec Products Inc., Bartlesville, Okla.). The total RNA was extracted using Trizol reagent by following the manufacture's protocol. The extracted RNA was further cleaned up using an RNeasy mini-kit (QIAGEN® Inc., Valencia, Calif.), including on-column DNA digestion with RNase-free DNase I. The RNA yield was quantified by OD260 reading, and the RNA integrity was checked, using agarose gel electrophoresis. The RNA samples were sent to the DNA MicroArray Lab at the Biotechnology Research Institute, National Research Council of Canada (Montreal, Canada) to further check the integrity and DNA microarray hybridization. RNA from a control sample and that from a furanone-treated sample were hybridized to each array. A total of four DNA microarrays were used and four biological replicates were tested. The data were analyzed using Genespring GX version 7.3 (Agilent Technologies®, Santa Clara Calif.). […] Gene functions were annotated by searching the Candida Genome Database at (www.candidagenome.org).

`CCCCC1=C(Br)/C(=C/Br)OC1=O` [BF1, 4-bromo-5Z-(bromomethylene)-3-butylfuran-2-one] was tested, and the Induction expression ratio (orf19.113 CIP1) was 3.17, the Induction expression ratio (orf19.1167) was 1.65 and the Induction expression ratio (orf19.1237 ARO9) was 1.87. The Induction expression ratio (orf19.125 EBP1) was 13.87, the Induction expression ratio (orf19.1286) was 1.97 and the Induction expression ratio (orf19.1421 DAL3) was 1.58. For the same compound, the Induction expression ratio (orf19.1783 YOR1) was 1.78, the “induction of gene CPD1 in DNA microarray” value (orf19.2175 (CPD1), 3 μg/mL BF1) was 12.94 fold and the Induction expression ratio (orf19.2175) was 10.94. It also gave an Induction expression ratio (orf19.2262) of 2.68, an Induction expression ratio (orf19.23 RTA3) of 5.01 and an Induction expression ratio (orf19.2396 IFR2) of 2.05. It also gave an Induction expression ratio (orf19.2693) of 3.97, an Induction expression ratio (orf19.2825 DRE2) of 1.69 and an Induction expression ratio (orf19.3131 OYE32) of 12.89. The Induction expression ratio (orf19.3139) was 8.82, the Induction expression ratio (orf19.320) was 14.98 and the Induction expression ratio (orf19.3234 OYE22) was 4.00. The Induction expression ratio (orf19.3340 SOD2) was 1.72, the Induction expression ratio (orf19.3433 OYE23) was 20.04 and the Induction expression ratio (orf19.3443 OYE2) was 3.30. It also gave an Induction expression ratio (orf19.3707 YHB1) of 2.65, an Induction expression ratio (orf19.4940 HIP1) of 2.57 and an Induction expression ratio (orf19.5059 GCS1) of 1.96. It also gave an Induction expression ratio (orf19.5604 MDR1) of 5.36, an Induction expression ratio (orf19.5992 WOR2) of 1.54 and an Induction expression ratio (orf19.6059 TTR2) of 1.80. The Induction expression ratio (orf19.6275) was 1.94, the Induction expression ratio (orf19.6869) was 4.21 and the Induction expression ratio (orf19.7306) was 2.87. It also gave an Induction expression ratio (orf19.7531) of 2.53, an Induction expression ratio (orf19.896 CHK1) of 1.54 and an Induction expression ratio (orf19.93) of 1.53. It also gave an Induction expression ratio (repressed gene orf19.1097 ALS4) of 0.42, an Induction expression ratio (repressed gene orf19.1344) of 0.60 and an Induction expression ratio (repressed gene orf19.270) of 0.47. For the same compound, the Induction expression ratio (repressed gene orf19.2896 SOU1) was 0.60, the Induction expression ratio (repressed gene orf19.2959.1) was 0.64 and the Induction expression ratio (repressed gene orf19.3066 ENG1) was 0.57. The Induction expression ratio (repressed gene orf19.3629 DSE1) was 0.66, the Induction expression ratio (repressed gene orf19.3794 CSR1) was 0.60 and the Induction expression ratio (repressed gene orf19.4337 ESBP6) was 0.65. The Induction expression ratio (repressed gene orf19.4737 TPO3) was 0.60, the Induction expression ratio (repressed gene orf19.5170 ENA21) was 0.61 and the Induction expression ratio (repressed gene orf19.5193 FMA1) was 0.61. For the same compound, the Induction expression ratio (repressed gene orf19.5267) was 0.56, the Induction expression ratio (repressed gene orf19.5565) was 0.43 and the Induction expression ratio (repressed gene orf19.6073 HMX1) was 0.59. It also gave an Induction expression ratio (repressed gene orf19.6077) of 0.51, an Induction expression ratio (repressed gene orf19.6245) of 0.67 and an Induction expression ratio (repressed gene orf19.716) of 0.51. For the same compound, the Induction expression ratio (repressed gene orf19.742 ALD6) was 0.33, the Induction expression ratio (repressed gene orf19.7502) was 0.67 and the Induction expression ratio (repressed gene orf19.7586 CHT3) was 0.66.
